Patent US9790178B2, “Pyrrolidinyl urea, thiourea, guanidine and cyanoguanidine compounds as TrkA kinase inhibitors” (Array BioPharma Inc., priority 2012, dated 2017)

How the values were obtained:
Assay in all cases: KinaseProfiler off-target kinase profiling
Format in all cases: biochemical
Conditions in all cases: 10 μM, ATP near Km
[1] = target: T1, AKT3 (Homo sapiens, UniProt Q9Y243)
T1 construct: purchased Millipore, Inc. (KinaseProfiler service)
Outline: (§1)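 Single-point screen, 10 μM compound, n=2; ATP ≈ Km per kinase. Read-out: POC, mean of duplicates.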

[2] = target: T2, AMPK(A1/B1/G1) (Homo sapiens, UniProt Q13131)
T2 construct: purchased Millipore, Inc. (KinaseProfiler service)
Outline: as §1

[3] = target: T3, AURKA (Homo sapiens, UniProt O14965)
T3 construct: purchased Millipore, Inc. (KinaseProfiler service)
Outline: as §1

[4] = target: T4, BLK_m (Mus musculus, UniProt P16277)
T4 construct: purchased Millipore, Inc. (KinaseProfiler service)
Outline: as §1

[5] = target: T5, CAMK1d (Homo sapiens, UniProt Q8IU85)
T5 construct: purchased Millipore, Inc. (KinaseProfiler service)
Outline: as §1

[6] = target: T6, CAMK4 (Homo sapiens, UniProt Q16566)
T6 construct: purchased Millipore, Inc. (KinaseProfiler service)
Outline: as §1

[7] = target: T7, CDK1/cyclinB (Homo sapiens, UniProt P06493)
T7 construct: purchased Millipore, Inc. (KinaseProfiler service)
Outline: as §1

[8] = target: T8, CDK2/cyclinA (Homo sapiens, UniProt P24941)
T8 construct: purchased Millipore, Inc. (KinaseProfiler service)
Outline: as §1

[9] = target: T9, DDR2 (Homo sapiens, UniProt Q16832)
T9 construct: purchased Millipore, Inc. (KinaseProfiler service)
Outline: as §1

[10] = target: T10, EphA8 (Homo sapiens, UniProt P29322)
T10 construct: purchased Millipore, Inc. (KinaseProfiler service)
Outline: as §1

[11] = target: T11, FGFR4 (Homo sapiens, UniProt P22455)
T11 construct: purchased Millipore, Inc. (KinaseProfiler service)
Outline: as §1

[12] = target: T12, HIPK3 (Homo sapiens, UniProt Q9H422)
T12 construct: purchased Millipore, Inc. (KinaseProfiler service)
Outline: as §1

[13] = target: T13, Haspin (Homo sapiens, UniProt Q8TF76)
T13 construct: purchased Millipore, Inc. (KinaseProfiler service)
Outline: as §1

[14] = target: T14, IRAK1 (Homo sapiens, UniProt P51617)
T14 construct: purchased Millipore, Inc. (KinaseProfiler service)
Outline: as §1

[15] = target: T15, IRR (Homo sapiens, UniProt P14616)
T15 construct: purchased Millipore, Inc. (KinaseProfiler service)
Outline: as §1

[16] = target: T16, JNK3 (Homo sapiens, UniProt P53779)
T16 construct: purchased Millipore, Inc. (KinaseProfiler service)
Outline: as §1

[17] = target: T17, MARK1 (Homo sapiens, UniProt Q9P0L2)
T17 construct: purchased Millipore, Inc. (KinaseProfiler service)
Outline: as §1

[18] = target: T18, MARK2 (Homo sapiens, UniProt Q7KZI7)
T18 construct: purchased Millipore, Inc. (KinaseProfiler service)
Outline: as §1

[19] = target: T19, MELK (Homo sapiens, UniProt Q14680)
T19 construct: purchased Millipore, Inc. (KinaseProfiler service)
Outline: as §1

[20] = target: T20, MKK6 (Homo sapiens, UniProt P52564)
T20 construct: purchased Millipore, Inc. (KinaseProfiler service)
Outline: as §1

[21] = target: T21, MSK1 (Homo sapiens, UniProt O75582)
T21 construct: purchased Millipore, Inc. (KinaseProfiler service)
Outline: as §1

[22] = target: T22, MST1 (Homo sapiens, UniProt Q13043)
T22 construct: purchased Millipore, Inc. (KinaseProfiler service)
Outline: as §1

[23] = target: T23, MuSK (Homo sapiens, UniProt O15146)
T23 construct: purchased Millipore, Inc. (KinaseProfiler service)
Outline: as §1

[24] = target: T24, NEK6 (Homo sapiens, UniProt Q9HC98)
T24 construct: purchased Millipore, Inc. (KinaseProfiler service)
Outline: as §1

[25] = target: T25, NEK7 (Homo sapiens, UniProt Q8TDX7)
T25 construct: purchased Millipore, Inc. (KinaseProfiler service)
Outline: as §1

[26] = target: T26, NLK (Homo sapiens, UniProt Q9UBE8)
T26 construct: purchased Millipore, Inc. (KinaseProfiler service)
Outline: as §1

[27] = target: T27, PAK2 (Homo sapiens, UniProt Q13177)
T27 construct: purchased Millipore, Inc. (KinaseProfiler service)
Outline: as §1

[28] = target: T28, PAK3 (Homo sapiens, UniProt O75914)
T28 construct: purchased Millipore, Inc. (KinaseProfiler service)
Outline: as §1

[29] = target: T29, PDK1 (Homo sapiens, UniProt O15530)
T29 construct: purchased Millipore, Inc. (KinaseProfiler service)
Outline: as §1

[30] = target: T30, PKCeta (Homo sapiens, UniProt P24723)
T30 construct: purchased Millipore, Inc. (KinaseProfiler service)
Outline: as §1

[31] = target: T31, PKD2 (Homo sapiens, UniProt Q9BZL6)
T31 construct: purchased Millipore (KinaseProfiler service)
Outline: as §1

[32] = target: T32, Pim-3 (Homo sapiens, UniProt Q86V86)
T32 construct: purchased Millipore, Inc. (KinaseProfiler service)
Outline: as §1

[33] = target: T33, Plk1 (Homo sapiens, UniProt P53350)
T33 construct: purchased Millipore (KinaseProfiler service)
Outline: as §1

[34] = target: T34, ROCK-II (Homo sapiens, UniProt O75116)
T34 construct: purchased Millipore (KinaseProfiler service)
Outline: as §1

[35] = target: T35, Ros (Homo sapiens, UniProt P08922)
T35 construct: purchased Millipore (KinaseProfiler service)
Outline: as §1

[36] = target: T36, SRPK1 (Homo sapiens, UniProt Q96SB4)
T36 construct: purchased Millipore, Inc. (KinaseProfiler service)
Outline: as §1

[37] = target: T37, STK33 (Homo sapiens, UniProt Q9BYT3)
T37 construct: purchased Millipore, Inc. (KinaseProfiler service)
Outline: as §1

[38] = target: T38, TrkB (Homo sapiens, UniProt Q16620)
T38 construct: purchased Millipore, Inc. (KinaseProfiler service)
Outline: as §1

[39] = target: T39, VRK2 (Homo sapiens, UniProt Q86Y07)
T39 construct: purchased Millipore, Inc. (KinaseProfiler service)
Outline: as §1

[40] = target: T40, WNK2 (Homo sapiens, UniProt Q9Y3S1)
T40 construct: purchased Millipore, Inc. (KinaseProfiler service)
Outline: as §1

[41] = target: T41, p38delta (Homo sapiens, UniProt O15264)
T41 construct: purchased Millipore, Inc. (KinaseProfiler service)
Outline: as §1

T35 sequence (P08922 28-2347): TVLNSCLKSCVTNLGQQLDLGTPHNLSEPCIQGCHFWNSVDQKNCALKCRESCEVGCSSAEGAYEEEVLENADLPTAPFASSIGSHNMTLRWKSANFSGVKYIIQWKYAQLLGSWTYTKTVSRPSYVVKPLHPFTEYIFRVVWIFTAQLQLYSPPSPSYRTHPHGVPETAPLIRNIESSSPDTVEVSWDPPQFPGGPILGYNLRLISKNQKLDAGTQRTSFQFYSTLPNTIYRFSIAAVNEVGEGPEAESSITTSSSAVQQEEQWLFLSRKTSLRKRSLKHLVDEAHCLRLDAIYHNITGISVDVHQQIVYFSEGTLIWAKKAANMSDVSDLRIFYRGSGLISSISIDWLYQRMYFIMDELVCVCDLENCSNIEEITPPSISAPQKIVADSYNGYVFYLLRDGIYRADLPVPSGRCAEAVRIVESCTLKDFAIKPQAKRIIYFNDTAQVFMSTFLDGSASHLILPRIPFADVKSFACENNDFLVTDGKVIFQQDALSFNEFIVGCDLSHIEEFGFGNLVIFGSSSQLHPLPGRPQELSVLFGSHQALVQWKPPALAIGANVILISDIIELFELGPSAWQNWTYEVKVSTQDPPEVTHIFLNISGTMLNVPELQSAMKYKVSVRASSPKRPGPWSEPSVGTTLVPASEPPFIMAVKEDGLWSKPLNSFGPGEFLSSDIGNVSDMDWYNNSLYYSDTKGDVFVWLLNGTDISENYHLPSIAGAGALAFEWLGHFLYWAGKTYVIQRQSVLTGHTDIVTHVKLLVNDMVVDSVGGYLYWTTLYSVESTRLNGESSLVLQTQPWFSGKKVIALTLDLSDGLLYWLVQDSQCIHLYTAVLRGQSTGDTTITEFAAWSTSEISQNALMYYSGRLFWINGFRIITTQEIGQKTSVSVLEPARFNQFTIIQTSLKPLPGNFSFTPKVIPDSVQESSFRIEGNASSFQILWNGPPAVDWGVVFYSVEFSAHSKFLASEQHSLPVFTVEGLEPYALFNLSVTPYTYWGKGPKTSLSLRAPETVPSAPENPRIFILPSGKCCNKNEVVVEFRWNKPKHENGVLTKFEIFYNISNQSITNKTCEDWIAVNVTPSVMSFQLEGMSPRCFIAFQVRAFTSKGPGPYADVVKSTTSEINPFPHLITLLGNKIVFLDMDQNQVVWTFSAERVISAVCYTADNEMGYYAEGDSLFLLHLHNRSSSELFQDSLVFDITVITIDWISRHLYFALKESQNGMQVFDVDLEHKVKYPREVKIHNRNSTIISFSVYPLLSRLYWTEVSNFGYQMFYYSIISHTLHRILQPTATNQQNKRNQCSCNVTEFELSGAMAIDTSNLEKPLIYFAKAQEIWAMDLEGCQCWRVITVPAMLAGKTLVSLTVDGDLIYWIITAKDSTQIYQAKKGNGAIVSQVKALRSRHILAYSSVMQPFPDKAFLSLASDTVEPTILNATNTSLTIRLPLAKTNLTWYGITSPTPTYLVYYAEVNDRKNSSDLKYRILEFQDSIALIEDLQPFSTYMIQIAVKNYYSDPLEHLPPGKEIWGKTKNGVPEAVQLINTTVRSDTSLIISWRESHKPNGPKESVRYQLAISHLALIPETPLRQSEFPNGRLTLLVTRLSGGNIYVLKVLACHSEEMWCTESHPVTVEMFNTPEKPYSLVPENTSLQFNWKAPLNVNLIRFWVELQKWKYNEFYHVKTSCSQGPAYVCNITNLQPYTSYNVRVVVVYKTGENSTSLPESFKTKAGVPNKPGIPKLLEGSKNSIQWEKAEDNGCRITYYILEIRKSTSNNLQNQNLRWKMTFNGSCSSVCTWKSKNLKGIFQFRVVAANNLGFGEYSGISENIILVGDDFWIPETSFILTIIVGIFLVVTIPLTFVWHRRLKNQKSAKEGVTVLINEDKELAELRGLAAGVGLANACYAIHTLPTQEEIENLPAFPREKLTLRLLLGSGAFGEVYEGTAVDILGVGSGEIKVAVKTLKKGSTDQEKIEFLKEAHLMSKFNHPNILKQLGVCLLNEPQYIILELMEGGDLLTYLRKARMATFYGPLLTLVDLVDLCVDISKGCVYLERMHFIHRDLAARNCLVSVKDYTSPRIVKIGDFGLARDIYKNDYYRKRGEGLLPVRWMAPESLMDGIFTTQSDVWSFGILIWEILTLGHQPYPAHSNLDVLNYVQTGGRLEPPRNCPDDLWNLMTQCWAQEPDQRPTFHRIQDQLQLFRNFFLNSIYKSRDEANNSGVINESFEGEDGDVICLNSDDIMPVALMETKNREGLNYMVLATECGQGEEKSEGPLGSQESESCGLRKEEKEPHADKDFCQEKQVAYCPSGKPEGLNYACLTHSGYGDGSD
T21 sequence (O75582 whole entry): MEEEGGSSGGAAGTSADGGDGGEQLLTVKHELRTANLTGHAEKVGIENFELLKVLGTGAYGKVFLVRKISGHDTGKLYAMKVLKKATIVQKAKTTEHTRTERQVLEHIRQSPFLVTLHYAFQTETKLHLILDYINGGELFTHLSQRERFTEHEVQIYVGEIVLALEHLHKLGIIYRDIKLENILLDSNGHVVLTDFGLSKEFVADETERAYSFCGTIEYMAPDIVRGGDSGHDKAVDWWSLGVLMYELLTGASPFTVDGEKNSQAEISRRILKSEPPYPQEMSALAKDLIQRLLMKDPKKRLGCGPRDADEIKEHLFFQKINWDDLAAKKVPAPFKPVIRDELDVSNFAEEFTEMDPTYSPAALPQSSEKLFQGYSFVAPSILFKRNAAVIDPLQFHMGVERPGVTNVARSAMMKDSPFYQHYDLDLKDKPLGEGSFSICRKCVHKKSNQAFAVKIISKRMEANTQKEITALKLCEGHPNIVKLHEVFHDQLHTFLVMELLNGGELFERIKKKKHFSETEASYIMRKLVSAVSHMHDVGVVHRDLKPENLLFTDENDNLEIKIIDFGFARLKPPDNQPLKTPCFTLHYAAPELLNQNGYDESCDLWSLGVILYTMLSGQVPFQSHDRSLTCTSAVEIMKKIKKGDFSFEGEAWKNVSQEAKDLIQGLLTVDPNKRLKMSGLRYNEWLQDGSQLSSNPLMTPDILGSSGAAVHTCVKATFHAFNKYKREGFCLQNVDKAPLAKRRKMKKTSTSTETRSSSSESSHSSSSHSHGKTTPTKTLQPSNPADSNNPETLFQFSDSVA
T2 sequence (Q13131 whole entry): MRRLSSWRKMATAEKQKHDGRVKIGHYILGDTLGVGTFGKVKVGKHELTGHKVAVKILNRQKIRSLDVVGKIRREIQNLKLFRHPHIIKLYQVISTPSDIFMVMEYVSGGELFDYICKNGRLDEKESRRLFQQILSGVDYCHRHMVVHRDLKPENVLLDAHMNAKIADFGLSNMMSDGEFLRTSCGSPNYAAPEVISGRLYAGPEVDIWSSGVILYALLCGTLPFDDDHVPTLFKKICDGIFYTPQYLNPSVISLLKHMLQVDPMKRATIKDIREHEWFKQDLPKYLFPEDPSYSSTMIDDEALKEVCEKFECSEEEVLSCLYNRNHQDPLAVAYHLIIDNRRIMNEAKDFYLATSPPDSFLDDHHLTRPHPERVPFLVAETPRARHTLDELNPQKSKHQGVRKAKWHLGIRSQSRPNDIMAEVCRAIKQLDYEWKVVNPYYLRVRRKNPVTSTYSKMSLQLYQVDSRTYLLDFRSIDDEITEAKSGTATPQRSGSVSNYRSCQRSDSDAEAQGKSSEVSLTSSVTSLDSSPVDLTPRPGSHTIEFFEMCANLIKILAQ
T2 sequence (Q9Y478 whole entry partner): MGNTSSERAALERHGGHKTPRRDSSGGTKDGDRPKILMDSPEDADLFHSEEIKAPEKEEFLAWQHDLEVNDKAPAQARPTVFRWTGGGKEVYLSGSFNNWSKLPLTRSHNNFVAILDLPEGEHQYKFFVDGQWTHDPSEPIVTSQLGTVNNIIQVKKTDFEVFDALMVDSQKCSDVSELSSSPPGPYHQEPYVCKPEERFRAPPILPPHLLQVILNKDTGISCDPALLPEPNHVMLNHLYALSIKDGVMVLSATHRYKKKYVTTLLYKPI
T2 sequence (P54619 whole entry partner): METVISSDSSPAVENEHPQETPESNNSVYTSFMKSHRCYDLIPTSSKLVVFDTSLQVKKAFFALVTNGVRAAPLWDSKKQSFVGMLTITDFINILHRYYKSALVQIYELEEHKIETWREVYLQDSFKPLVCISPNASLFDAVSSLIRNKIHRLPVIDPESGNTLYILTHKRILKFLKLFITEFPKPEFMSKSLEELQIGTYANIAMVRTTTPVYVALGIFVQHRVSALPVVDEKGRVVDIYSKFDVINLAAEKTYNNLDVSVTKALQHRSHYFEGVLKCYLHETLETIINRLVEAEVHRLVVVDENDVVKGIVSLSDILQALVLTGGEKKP
T16 sequence (P53779 whole entry): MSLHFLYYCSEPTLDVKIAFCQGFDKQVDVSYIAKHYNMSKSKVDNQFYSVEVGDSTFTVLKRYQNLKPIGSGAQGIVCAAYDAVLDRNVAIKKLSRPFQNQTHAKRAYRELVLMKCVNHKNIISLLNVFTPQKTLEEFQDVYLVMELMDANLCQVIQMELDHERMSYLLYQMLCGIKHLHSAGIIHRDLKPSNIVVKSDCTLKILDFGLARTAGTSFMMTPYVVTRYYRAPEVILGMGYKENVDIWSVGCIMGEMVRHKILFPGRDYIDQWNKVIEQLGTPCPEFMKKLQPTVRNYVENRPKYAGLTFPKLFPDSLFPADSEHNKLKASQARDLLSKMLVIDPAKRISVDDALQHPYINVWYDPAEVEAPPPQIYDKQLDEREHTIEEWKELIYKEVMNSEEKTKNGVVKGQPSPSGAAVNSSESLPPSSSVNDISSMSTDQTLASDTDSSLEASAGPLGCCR

Compound: COCCN1C[C@@H](NC(=O)Nc2c(-c3ccccc3)nc3c(C)nccn23)[C@H](c2ccc(F)c(F)c2)C1 [Example 20, 1-((3S,4R)-4-(3,4-difluorophenyl)-1-(2-methoxyethyl)pyrrolidin-3-yl)-3-(8-methyl-2-phenylimidazo[1,2-a]pyrazin-3-yl)urea]
- Avg. POC [1]: 104 POC
- Avg. POC [2]: 108.5 POC
- Avg. POC [3]: 118 POC
- Avg. POC [4]: 113 POC
- Avg. POC [5]: 107.5 POC
- Avg. POC [6]: 105 POC
- Avg. POC [7]: 99 POC
- Avg. POC [8]: 112 POC
- Avg. POC [9]: 106 POC
- Avg. POC [10]: 98.5 POC
- Avg. POC [11]: 90 POC
- Avg. POC [12]: 105.5 POC
- Avg. POC [13]: 93.5 POC
- Avg. POC [14]: 109.5 POC
- Avg. POC [15]: 96 POC
- Avg. POC [16]: 124.5 POC
- Avg. POC [17]: 103.5 POC
- Avg. POC [18]: 98 POC
- Avg. POC [19]: 97.5 POC
- Avg. POC [20]: 83 POC
- Avg. POC [21]: 121 POC
- Avg. POC [22]: 89.5 POC
- Avg. POC [23]: 108.5 POC
- Avg. POC [24]: 92.5 POC
- Avg. POC [25]: 105.5 POC
- Avg. POC [26]: 99 POC
- Avg. POC [27]: 100.5 POC
- Avg. POC [28]: 219.5 POC
- Avg. POC [29]: 119.5 POC
- Avg. POC [30]: 105.5 POC
- Avg. POC [31]: 113.5 POC
- Avg. POC [32]: 98 POC
- Avg. POC [33]: 104 POC
- Avg. POC [34]: 122 POC
- Avg. POC [35]: 95.5 POC
- Avg. POC [36]: 113.5 POC
- Avg. POC [37]: 109.5 POC
- Avg. POC [38]: 0.5 POC
- Avg. POC [39]: 117.5 POC
- Avg. POC [40]: 120 POC
- Avg. POC [41]: 105 POC
